Results on one molecule are retold here after patent US12459951B2, “Compounds that interact with RAS superfamily proteins for treatment of cancers, inflammatory diseases, rasopathies, and fibrotic disease” (SHY Therapeutics, LLC, priority 2022, dated 2025).

Assay [1] deals with IL6. As to the kind of experiment: IL-6 Quantification Assay (ELISA), LPS-stimulated RAW 264.7. The assay is classed as cell-based. Details: inhibition: dose or concentration left out as unconfirmed. To be noted: Mus musculus, RAW264.7; read-out: IL-6: % inh. In general terms: In an ELISA, binding on a coated surface is turned into a signal by an enzyme label.
Assay [2] relates to TNF-alpha. Kind of assay: TNF-alpha Quantification Assay (ELISA), LPS-stimulated RAW 264.7. It is filed as cell-based. To be noted: Mus musculus, RAW264.7; at 10 μM; read-out: TNFα: % inh.
In assay [3] the test system is KRas G12D mutant. As to the kind of experiment: Ras GTP Binding Domain Inhibition Assay (Ras Superfamily Assay). To be noted: 20 μM compound. The text has this: (§1) Biological Example 3: Ras GTP Binding Domain Inhibition Assay
(§2) The assays described in Example 3 are collectively referred to as the “Ras Superfamily Assay” throughout this application.
(§3) A Ras Superfamily Activity Assay (as disclosed in International Application No. PCT/US2018/038613, filed Jun. 20, 2018, which is incorporated by reference in its entirety) was used as a specific assay to evaluate compounds against the following for the following Ras Superfamily proteins: KRas wild type, KRas Q61H mutant, KRas G12C mutant, KRas G12D mutant, Rac-1, and Rho-A.
(§4) • 25 mM Tris-HCl, pH 7.4 • 27 mM KCl • 137 mM NaCl • 1 mM MgCl2 • 1 mM DTT Buffer-II: • 50 mM Tris-HCl, pH 7.0 • 1 mM MgCl2 • 1 mM DTT
(§5) The small GTPases proteins: KRas wild type. KRas Q61H mutant, KRas G12C mutant, KRas G12D mutants, Rac-1, and Rho-A were expressed as His-tagged proteins. In addition, the Guanosine nucleotide Exchange Factor (GEF) Sos protein (residues 556-1049) was expressed as a His-tagged protein. In cells, the guanine nucleotide exchange factor Sos protein promotes activation of Ras proteins by stimulating an exchange of GDP for GTP. The inclusion of Sos to the Ras GTP binding domain inhibition assay may be considered as an alternative representation of physiological cellular conditions for evaluating the inhibitory activity of some of the tested small molecules.
(§6) For the assay, all purified small GTPases proteins were diluted in Buffer-I or Buffer-II to a final concentration of 10-30 μg/mL. 200 μL of each diluted protein was added to a nickel-coated 96-well plate and incubated overnight at 4° C. Then the protein solution was discarded and 200 μL of Buffer-I or Buffer-II was added to each well in the presence of 1% DMSO. Compounds to be tested were added to the protein-coated wells at final concentration of 20 μM, and incubated for 3 hours at room temperature with and without 10-30 μg/mL of Sos added to the final hour of the incubation. When performing IC50 measurements a serial dilution of all tested concentrations was added. Then Cy3-GTP or Cy5-GTP was added to each well to a final concentration of 100 nM. The labeled GTP was incubated for 45 minutes at room temperature. Following GTP incubation, wells were washed 3× in Buffer-I or Buffer-II and 200 μL of Buffer-I or Buffer-II was added to each well. Following washes, the amount of bound labeled-GTP was measured using a SpectraMax M3 (Molecular Devices).

The subject of assay [4] is KRas wild type. The description is as above. To be noted: 20 μM compound.
Text: as §1, §2, §3, §4, §5, §6

For assay [5], the target named is T1, Rac-1 (Homo sapiens, UniProt P63000).
T1 construct: made in house
The description is as above. To be noted: read-out: Rac-1: % inh.
Text: as §1, §2, §3, §4, §5, §6

Turning to `COC(=O)c1c(-c2ccn(C)n2)cn2nc(-c3nccn3C)nc(N[C@H]3CC[C@H](OC)C3)c12` (racemic) [Compound 180, Methyl 4-(((1S,3S)-3-methoxycyclopentyl)amino)-2-(1-methyl-1H-imidazol-2-yl)-6-(1-methyl-1H-pyrazol-3-yl)pyrrolo[2,1-f][1,2,4]triazine-5-carboxylate], the inhibition in assay [1] is 50 to 74%. The inhibition at 10 µM in assay [2] was in the range of 25 to 49%. Moreover, the “KRas G12D mutant + SOS: % inh.” value in assay [3] (with SOS) is listed as “A (A = 1-25% inhibition)”. Also, the “KRas G12D mutant: % inh.” value in assay [3] (without SOS) was “A (A = 1-25% inhibition)”. Besides, the “KRas wild type + SOS: % inh.” value in assay [4] (with SOS) is on record as “A (A = 1-25% inhibition)”. Besides, the “KRas wild type: % inh.” value in assay [4] (without SOS) is listed as “A (A = 1-25% inhibition)”. Also, the inhibition at 20 µM in assay [5] lay in the range of 1 to 25%.
